Measured values from PubChem BioAssay AID624274 (Broad Institute, 2012).
Values joined by “and” are separate entries in the source; they are usually repeats but may differ in a detail not shown here. Identical values can stand only once.

The molecules below were run against Protein disulfide-isomerase (Homo sapiens) (UniProt P07237) (assay: inhibition of PDI-mediated insulin reduction – biochemical, turbidity, absorbance, cherry-picked samples, set 2, dose response (AID 624274)). Details: absorbance 650 nm.
Chain of Protein disulfide-isomerase (Homo sapiens) (P07237 whole entry, looked up): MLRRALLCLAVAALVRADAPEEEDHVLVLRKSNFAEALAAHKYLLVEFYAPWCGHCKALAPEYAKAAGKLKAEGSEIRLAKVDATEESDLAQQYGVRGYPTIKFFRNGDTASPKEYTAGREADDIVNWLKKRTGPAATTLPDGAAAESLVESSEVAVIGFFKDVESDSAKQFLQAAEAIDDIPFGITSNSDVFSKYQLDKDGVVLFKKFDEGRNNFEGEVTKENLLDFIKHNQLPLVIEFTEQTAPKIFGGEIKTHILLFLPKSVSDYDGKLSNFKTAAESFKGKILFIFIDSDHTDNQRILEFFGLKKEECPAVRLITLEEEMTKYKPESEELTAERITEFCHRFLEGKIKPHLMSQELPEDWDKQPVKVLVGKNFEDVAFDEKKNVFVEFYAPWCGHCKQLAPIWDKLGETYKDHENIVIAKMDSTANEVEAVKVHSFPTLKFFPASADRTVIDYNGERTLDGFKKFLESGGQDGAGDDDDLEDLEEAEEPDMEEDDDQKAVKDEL
`CCN(CC)CCNC(=O)C(C(=O)c1ccccc1)n1ccccc1=O` (stereo not drawn) gave an AC50 of 2.16 µM. In the case of `Cc1c(-n2cc(C(=O)c3ccccc3O)cc(C#N)c2=O)c(=O)n(-c2ccccc2)n1C`, the AC50 is reported as 5.89 µM. `Cc1c(O)ccc2c(CN3CCN(C/C=C/c4ccccc4)CC3)cc(=O)oc12` gave an AC50 of 19.5 µM. Work on `COc1ccc(/C=C2\CN(Cc3ccccc3)C/C(=C\c3ccc(OC)c(O)c3)C2=O)cc1O` yielded an AC50 of 2.98 µM. Molecule `CCSc1nnc([C@H](Cc2c[nH]c3ccccc23)NC(=O)OC(C)(C)C)o1` has an AC50 of 19.5 µM. In the case of `CN(C)C(=O)CSc1nnc([C@H](Cc2c[nH]c3ccccc23)NC(=O)OC(C)(C)C)o1`, the AC50 is reported as 19.5 µM. Molecule `C[C@H]1CN([C@@H](C)CO)C(=O)c2cc(NC(=O)Cc3cn(C)c4ccccc34)ccc2O[C@H]1CN(C)S(=O)(=O)c1ccc(F)cc1` has an AC50 of 19.5 µM. For `C[C@H](CO)N1C[C@H](C)[C@H](CN(C)S(=O)(=O)c2ccc(F)cc2)Oc2ccc(NC(=O)Cc3cn(C)c4ccccc34)cc2C1=O`, the AC50 was 19.5 µM. Work on `CC(Cc1ccccc1Sc1ccccc1O)N(C)C` (stereo not drawn) yielded an AC50 of 15.9 µM. `C[C@H](CO)N1C[C@H](C)[C@@H](CN(C)S(=O)(=O)c2ccccc2)Oc2ccc(NC(=O)Cc3cn(C)c4ccccc34)cc2C1=O` gave an AC50 of 0.125 µM. For `C[C@@H]1O[C@@H](OC[C@@H]2O[C@H](Oc3c(-c4ccc(O)cc4)oc4cc(O)cc(O)c4c3=O)[C@@H](O)[C@H](O)[C@H]2O)[C@H](O)[C@H](O)[C@H]1O`, the AC50 was 3.51 µM. `C[C@H]1CN([C@@H](C)CO)C(=O)c2cc(NC(=O)Cc3cn(C)c4ccccc34)ccc2O[C@@H]1CN(C)S(=O)(=O)c1ccc(F)cc1` was tested, and the AC50 was 19.5 µM. `CN(C)S(=O)(=O)c1ccc(Cl)c(NC(=O)CSc2nnnn2-c2ccc(O)cc2)c1` was tested, and the AC50 was 19.5 µM. Work on `COc1cccc(NS(=O)(=O)c2ccc3c(c2)C2C=CCC2C(c2ccc(C(=O)O)cc2)N3)c1` (stereo not drawn) yielded an AC50 of 15.8 µM. In the case of `Oc1ccc(/C=C/c2nc(-c3ccccc3O)n(-c3ccccc3)n2)cc1`, the AC50 is reported as 18.8 µM. With `COc1ccc(C2c3ccc(O)cc3Oc3ncn(CCN4CCOCC4)c(=N)c32)cc1OC` (stereo not drawn) the AC50 was 15.5 µM. `CC[C@]12c3[nH]c4cc(-c5ccco5)ccc4c3CCN1C(=O)[C@@H](CC(=O)NCCCOC)C[C@@H]2C(=O)N1CCN(C(=O)c2ccco2)CC1` was tested, and the AC50 was 16.7 µM. Molecule `O=C(O)C1C(c2ccccc2)C(C(=O)Oc2ccc(O)cc2)C1c1ccccc1` (stereo not drawn) has an AC50 of 14.7 µM. For `C[C@@H]1CN([C@@H](C)CO)C(=O)c2cccc(NS(C)(=O)=O)c2O[C@H]1CN(C)Cc1ccc(Oc2ccccc2)cc1`, the AC50 was 19.5 µM and 7.04 µM. Work on `COc1cc(-c2oc3cc(O)cc(O)c3c(=O)c2O[C@@H]2O[C@H](COC3O[C@@H](C)[C@H](O)[C@@H](O)[C@H]3O)[C@@H](O)[C@H](O)[C@H]2O)ccc1O` (stereo partly drawn) yielded an AC50 of 7.96 µM. `CCOC(=O)C1(CCOc2ccccc2)CCN(Cc2cc(OC)c(O)cc2Cl)CC1` showed an AC50 of 6.03 µM. `CCOC(=O)c1c(CN2CCN(CCO)CC2)n(-c2ccccc2)c2cc(Br)c(O)cc12` gave an AC50 of 0.61 µM. `C[C@H](CO)N1C[C@H](C)[C@@H](CN(C)Cc2ccc(Oc3ccccc3)cc2)Oc2c(NS(C)(=O)=O)cccc2C1=O` showed an AC50 of 19.5 µM. `Cc1noc(C)c1S(=O)(=O)Nc1ccc2c(c1)CC(=O)N([C@@H](C)CO)C[C@H](C)[C@H](CN(C)S(=O)(=O)c1ccc(F)cc1)O2` was tested, and the AC50 was 19.5 µM. `Cc1noc(C)c1S(=O)(=O)Nc1ccc2c(c1)CC(=O)N([C@@H](C)CO)C[C@@H](C)[C@H](CN(C)S(=O)(=O)c1ccc(F)cc1)O2` was tested, and the AC50 was 19.5 µM. Molecule `Cc1c(O)ccc2c(CN3CCN(CCO)CC3)cc(=O)oc12` has an AC50 of 8.66 µM. `C[C@H](CO)N1C[C@H](C)[C@@H](CN(C)S(=O)(=O)c2ccc(F)cc2)Oc2ccc(NC(=O)Cc3cn(C)c4ccccc34)cc2C1=O` showed an AC50 of 19.5 µM. `CCN1CC2(COC(=O)c3ccccc3N)CCC(OC)C34C5CC6C(OC)CC(O)(C5C6OC)C(O)(C(OC)C23)C14` (stereo not drawn) gave an AC50 of 19.5 µM. In the case of `C[C@@H]1O[C@@H](O[C@H]2[C@H](O)[C@@H](O)[C@H](Oc3c(-c4ccc(O)c(O)c4)oc4cc(O)cc(O)c4c3=O)O[C@@H]2CO)[C@H](O)[C@H](O)[C@H]1O`, the AC50 is reported as 4.28 µM. `C[C@@H]1O[C@@H](O[C@H]2[C@H](O)[C@@H](O)[C@H](Oc3c(-c4ccc(O)cc4)oc4cc(O)cc(O)c4c3=O)O[C@@H]2CO)[C@H](O)[C@H](O)[C@H]1O` showed an AC50 of 6.92 µM. `Cn1cnnc1Sc1ccc(/C=C/C(=O)c2ccc(O)cc2)cc1[N+](=O)[O-]` showed an AC50 of 0.422 µM. `O=C(c1c(O)cc(O)cc1O)C1c2c(cc(O)c3c2O[C@H](c2ccc(O)cc2)[C@@H](O)C3)OC1c1ccc(O)cc1` (stereo partly drawn) gave an AC50 of 19.5 µM. In the case of `COC1/C=C/C=C(\C)Cc2cc(O)c(Cl)c(c2)N(C)C(=O)CC(OC(=O)C(C)C)C2(C)OC2C(C)C2CC1(O)NC(=O)O2` (stereo not drawn), the AC50 is reported as 9.59 µM. Work on `CCOc1cc(N2CCOCC2)c(OCC)cc1NC(=O)COC(=O)[C@H](Cc1c[nH]c2ccccc12)NC(C)=O` yielded an AC50 of 19.5 µM. With `NNC(=O)c1cc(-c2ccc(O)cc2)nc2ccc(Br)cc12` the AC50 was 19.5 µM. Molecule `O=c1c(O[C@H]2O[C@@H](CO)[C@H](O)[C@@H](O)[C@@H]2O)c(-c2ccc(O)cc2)oc2cc(O)cc(O)c12` has an AC50 of 0.0155 µM. `Cc1cccn2c(CN(C)C3CCCc4ccccc43)c(C(=O)N3CCOCC3)nc12` (stereo not drawn) showed an AC50 of 19.5 µM. `COc1ccccc1N1CCN(C(=O)C(=O)N/N=C/c2cccc(O)c2)CC1` was tested, and the AC50 was 19.5 µM. `COc1cccc2c1C(=O)c1c(O)c3c(c(O)c1C2=O)CC(O)(C(C)=NO)CC3OC1CC(N)C(O)C(C)O1` (stereo not drawn) gave an AC50 of 16.9 µM. `Cc1c(O)ccc2c(CC(=O)N[C@@H](Cc3c[nH]c4ccccc34)C(=O)O)cc(=O)oc12` gave an AC50 of 6.76 µM. Work on `Cc1cc(O)cc2c1C1CCC3(C)C(=O)CCC3C1C=C2` (stereo not drawn) yielded an AC50 of 19.5 µM. With `O=C(CCC1CCCCC1)NCCN1C2=NC[C@H](Cc3ccc(O)cc3)N2C[C@H]1Cc1ccc(O)cc1` the AC50 was 19.5 µM. For `O=c1c(OC2OC(CO)C(O)C(O)C2O)c(-c2ccc(O)c(O)c2)oc2cc(O)cc(O)c12` (stereo not drawn), the AC50 was 8.92 µM. `O=C(c1ccco1)N1CCN(Cc2cc(=O)oc3cc(O)ccc23)CC1` was tested, and the AC50 was 19.5 µM. `CC(C)(C)OC(=O)N[C@@H](Cc1c[nH]c2ccccc12)c1nnc(SCC(N)=O)o1` gave an AC50 of 19.5 µM. `CC[C@]12c3[nH]c4cc(-c5ccco5)ccc4c3CCN1C(=O)[C@@H](CC(=O)NCc1ccc(OC)c(OC)c1)C[C@@H]2C(=O)N1CCN(C(=O)c2ccco2)CC1` was tested, and the AC50 was 4.25 µM. `COC(=O)CC1OCC=C2CN3CCC45C6=CC(=O)C(=O)C([N+](=O)[O-])=C6NC4C1C2CC35` (stereo not drawn) gave an AC50 of 8.03 µM. For `C[C@@H]1O[C@@H](OC[C@H]2O[C@@H](Oc3c(-c4ccc(O)c(O)c4)oc4cc(O)cc(O)c4c3=O)[C@H](O)[C@@H](O)[C@@H]2O)[C@H](O)[C@H](O)[C@H]1O`, the AC50 was 7.62 µM. With `Cc1ccc2nc(N3CCN(Cc4nnnn4C4CCCC4)CC3)c(C#N)cc2c1` the AC50 was 4.05 µM. Molecule `CCN1C(=O)C2C(c3ccccc3F)NC(Cc3ccc(O)cc3)(C(=O)OC)C2C1=O` (stereo not drawn) has an AC50 of 10.2 µM. With `C[C@@H]1CN([C@@H](C)CO)C(=O)c2cc(NC(=O)Cc3cn(C)c4ccccc34)ccc2O[C@H]1CN(C)S(=O)(=O)c1ccc(F)cc1` the AC50 was 2.08 µM. In the case of `CC(C)Sc1nnc([C@H](Cc2c[nH]c3ccccc23)NC(=O)OC(C)(C)C)o1`, the AC50 is reported as 19.5 µM. Molecule `CCOC(=O)C1(CCOc2ccccc2)CCN(Cc2ccc(O)c(Cl)c2)CC1` has an AC50 of 0.599 µM. With `Cc1n[nH]c(=O)c2c(NC(=O)CSc3nnnn3-c3ccc(O)cc3)oc(C)c12` the AC50 was 19.5 µM. In the case of `CC(=O)OC[C@H]1O[C@@H](Oc2cc(O)cc3oc(-c4ccc(O)cc4)cc(=O)c23)[C@H](O[C@@H]2O[C@@H](C)[C@H](O)[C@@H](O)[C@H]2O)[C@@H](O)[C@@H]1O`, the AC50 is reported as 19.5 µM. `CCc1cc(OCCCCNCc2ccccc2)ccc1Cl` was tested, and the AC50 was 10.6 µM. For `O=S(=O)(c1ccccc1)N1N=C(c2ccc(O)cc2)CC1c1ccco1` (stereo not drawn), the AC50 was 19.5 µM. `Cc1ccc(S(=O)(=O)CCC(=O)c2ccc(O)cc2O)cc1` gave an AC50 of 15.6 µM. `C[C@@H]1O[C@@H](Oc2c(-c3cc(O)c(O)c(O)c3)oc3cc(O)cc(O)c3c2=O)[C@H](O)[C@H](O)[C@H]1O` gave an AC50 of 9.8 µM. Work on `O=c1c(O[C@@H]2O[C@H](CO)[C@@H](O)[C@H](O)[C@H]2O)c(-c2ccc(O)cc2)oc2cc(O)cc(O)c12` yielded an AC50 of 19 µM. In the case of `C/C=C(\C)C(=O)NCCN1C2=NC[C@H](Cc3ccc(O)cc3)N2C[C@H]1Cc1ccc(O)cc1`, the AC50 is reported as 15.4 µM. `CCN1C[C@]2(COC(=O)c3ccccc3N)CC[C@H](OC)C34[C@@H]5C[C@H]6[C@H](OC)[C@@H]5[C@](O)(C[C@@H]6OC)[C@@](O)([C@H]13)[C@@H](OC)[C@@H]42` gave an AC50 of 19.5 µM. Molecule `CCOC(=O)c1c(CNCCN(CC)CC)n(C)c2cc(Br)c(OC)cc12` has an AC50 of 0.376 µM. With `O=C(/C=C/c1ccc(NC(=O)c2ccccc2-c2ccccc2C(=O)O)cc1)c1ccccc1` the AC50 was 11.4 µM. With `O=C1NC[C@H](Cc2ccccc2)N(C[C@H]2CCCN2C[C@H](Cc2ccccc2)N2C[C@H](Cc3ccc(O)cc3)N(CCc3ccccc3)C(=O)C2=O)C1=O` the AC50 was 6.5 µM. `C[C@H](CO)N1C[C@H](C)[C@H](CN(C)Cc2ccccc2)Oc2ccc(NC(=O)Nc3ccccc3)cc2CC1=O` gave an AC50 of 19.5 µM. `C[C@]12CC[C@@H]3c4ccc(O[C@@H]5O[C@H](C(=O)O)[C@@H](O)[C@H](O)[C@H]5O)cc4CC[C@H]3[C@@H]1C[C@@H](O)[C@@H]2O` was tested, and the AC50 was 15.7 µM. `COc1ccc2c(CC(=O)OCC(=O)N(C)c3c(N)n(Cc4ccccc4)c(=O)[nH]c3=O)coc2c1` showed an AC50 of 5.45 µM. Molecule `Cc1noc(C)c1S(=O)(=O)Nc1ccc2c(c1)CC(=O)N([C@H](C)CO)C[C@H](C)[C@H](CN(C)S(=O)(=O)c1ccccc1)O2` has an AC50 of 19.5 µM. `C[C@@H]1CN([C@H](C)CO)C(=O)c2cccc(NS(C)(=O)=O)c2O[C@H]1CN(C)Cc1ccc(Oc2ccccc2)cc1` was tested, and the AC50 was 18.8 µM. `COc1cc2cc(C(=O)N3CC(COS(C)(=O)=O)c4ccc(O)cc43)[nH]c2c(OC)c1OC` (stereo not drawn) showed an AC50 of 18 µM. With `Cc1noc(C)c1S(=O)(=O)Nc1ccc2c(c1)CC(=O)N([C@H](C)CO)C[C@H](C)[C@@H](CN(C)S(=O)(=O)c1ccc(F)cc1)O2` the AC50 was 19.5 µM. For `O=C1C[C@@H](c2ccc(O[C@@H]3O[C@H](CO)[C@@H](O)[C@H](O)[C@H]3O)cc2)Oc2cc(O)ccc21`, the AC50 was 15.6 µM. `C[C@@H]1O[C@@H](Oc2c(-c3ccc(O)c(O)c3)oc3cc(O)cc(O)c3c2=O)[C@H](O)[C@H](O)[C@H]1O` was tested, and the AC50 was 2.48 µM and 5.59 µM. Molecule `COc1ccc(C(=O)Nc2ccccc2C(=O)NCc2ccco2)cc1` has an AC50 of 0.819 µM. For `O=C(NC(Cc1ccc(O)cc1)C(=O)N=Nc1c(O)[nH]c2ccccc12)c1ccccc1` (stereo not drawn), the AC50 was 19.5 µM. With `C[C@H]1CN([C@@H](C)CO)C(=O)Cc2cc(NC(=O)Nc3ccccc3)ccc2O[C@H]1CN(C)Cc1ccccc1` the AC50 was 10.3 µM. For `C[C@H]1CN([C@@H](C)CO)C(=O)c2cccc(NS(C)(=O)=O)c2O[C@@H]1CN(C)Cc1ccc(Oc2ccccc2)cc1`, the AC50 was 19.5 µM.
